Data on three compounds can be found in patent US9265747B2, “Platinum (IV) complexes for use in dual mode pharmaceutical therapy” (Massachusetts Institute of Technology, priority 2008, dated 2016).

For series [1], the system named is A2780/CP70, cisplatin-resistant human ovarian carcinoma. Kind of series: MTT assay, A2780/CP70 cells. The class given is cell-based. The note with it: 72 h; for IC50: A2780/CP70 cisplatin resistant cells. As to the method:
(§1) A more negative membrane potential might promote translocation of the active, cationic form of cisplatin from the cytoplasm to mitochondria, thus diminishing platination of nuclear DNA. […] Thus, a pair of cisplatin sensitive A2780 and resistant A2780/CP70 ovarian cancer cells were studied (Table 1 and FIG. 10). […] (▴) with (A) cisplatin sensitive A2780 cells and (B) cisplatin resistant A2780/CP70 cells, after 72 h as determined by the MTT assay. The controls were cisplatin and c,c,t-[Pt(NH3)2Cl2(O2CCH3)2]. […] Results for the A2780/CP70 cells indicate that DCA plays a role, in this embodiment, in making cisplatin-resistant cells susceptible towards mitaplatin treatment.
(§2) MTT Assay. Cytotoxic behavior of compound 1, DCA and cis-DDP were evaluated using the MTT assay. Solutions of the platinum complexes were freshly prepared in sterile PBS before use and quantitated by atomic absorption spectroscopy. Cells were seeded on a 96 well plate (1000 cells per well for NTera-2, U2OS, HeLa; 1400 per well for normal fibriblast; 500 per well for 7B, 10B, 175F and 150×2) in 100 μL DMEM media and incubated for 24 hours. The cells were then treated with compound 1, DCA or cis-DDP, separately at varying concentrations and incubated for 72 hours at 37° C. The cells were then treated with 20 μL of 3-(4,5-dimethylthiazol-2-yl)-2,5-diphenyltetrazolium bromide (MTT) (5 mg/mL in PBS) and incubated for 5 h. The medium was removed, the cells were lysed by adding 100 μl, of DMSO, and the absorbance of the purple formazan was recorded at 550 nm using a BioTek Synergy HT multi-detection microplate plate reader. Each well was performed in triplicate in three independent experiments for each cell line.

In series [2] the test system is MCF-7, human breast adenocarcinoma. Kind of series: MTT assay, MCF-7 cells. The class given is cell-based. As to the method: [The procedure below names another cell line; the source lists this cell line under the same test.] as §2
The subject of series [3] is MRC-5, normal lung fibroblast. Kind of series: MTT assay, MRC-5 normal cells. The class given is cell-based, human. As to the method: as §2
For orientation: Tetrazolium dyes change colour on reduction, which living cells bring about.

The subject of series [4] is A549, human lung carcinoma. In words: MTT assay, A549 cells. The note with it: 72 hours. In kind it is cell-based. As to the method:
[The procedure below names another cell line; the source lists this cell line under the same test.] as §2

In series [5] the test system is A2780, human ovarian carcinoma. In words: MTT assay, A2780 cells. In kind it is cell-based. The note with it: A2780 cisplatin sensitive cells, 72 h. As to the method:
as §1, §2

In the next series the test system is U2OS, human osteosarcoma. Kind of series: MTT assay, U2OS cells. The class given is cell-based. The note with it: 72 hours. As to the method: (§3) Cell Line and Cell Culture. Healthy normal fibroblast GM61869, human cancer NTera-2, human cervical cancer HeLa, human osteosarcoma cell line U2OS were obtained from the ATCC. Cells were incubated at 37° C. in 5% CO2 and grown in DMEM medium supplemented with 10% fetal bovine serum and 1% penicillin/streptomycin. Cells were passed every 3 to 4 days and restarted from the frozen stock upon reaching pass number 20.
as §2

The test system of series [6] is NTera-2, human testicular cancer. Kind of series: MTT assay, NTera-2 cells. In kind it is cell-based. As to the method: as §3, §2
Series [7] has as its system HeLa, human cervical cancer. Kind of series: MTT assay, HeLa cells. In kind it is cell-based. The note with it: 72 hours. As to the method: as §3, §2
The subject of series [8] is NTera, HeLa, U2OS, A549, and MCF-7 cancer cells as well as MRC-5 normal fibroblasts. Kind of series: MTT assay, control experiments in all cells. In kind it is cell-based, human. As to the method: The ability of the compound 1 to promote cell death was determined using the MTT assay and the results were compared against those for cisplatin or -2 DCA using NTera, HeLa, U2OS, A549, and MCF-7 cancer cells as well as MRC-5 normal fibroblasts (FIG. 3). […] This enhanced potency of mitaplatin is consistent with the expected dual killing mechanism.
as §2

The test system of another series is U2OS. In words: Annexin-V flow cytometry, U2OS cells. In kind it is cell-based, human. The note with it: 10 and 20 μM, 72 h. As for the experimental part:
(§4) In order to quantify mitaplatin-induced apoptosis in cancer cells, an Annexin-V was performed and analyzed using flow cytometry. With this analysis, the percentage of apoptotic cells found was determined at 72 h after exposure of mitaplatin and cisplatin.
A general note: In flow cytometry, cells or beads pass a laser one at a time.

The next series relates to A549. Kind of series: Annexin-V flow cytometry, A549 cells. In kind it is cell-based, human. The note with it: 10 and 20 μM, 72 h. As for the experimental part:
as §4

The subject of the next series is normal MRC-5 cells. In words: Annexin-V flow cytometry, normal MRC-5 cells. In kind it is cell-based, human. The note with it: 72 h, cisplatin at 10 μM. As to the method: as §4
Another series deals with HeLa. Kind of series: Annexin-V flow cytometry, HeLa cells. In kind it is cell-based, human. The note with it: 10 and 20 μM, 72 h. As for the experimental part:
as §4

Series [9] relates to normal fibroblasts and cancerous NTera-2 cells. In words: Co-culture of normal fibroblasts and cancerous NTera-2 cells. In kind it is cell-based, human. An excerpt:
Cisplatin kills both NTera-2 and normal fibroblast cells

A word on the IC50: it is the concentration that inhibits the measured activity by half. For `O=C(O)C(Cl)Cl` [DCA, Dichloroacetic acid], the 50% inhibitory concentration (IC50) was more than 120 µM in series [1] (Homo sapiens); more than 100 µM in series [2] (Homo sapiens, MCF7, 72 hours); more than 100 µM in [3] (Homo sapiens, MRC5, 72 hours); more than 200 µM in [4] (Homo sapiens); more than 120 µM in [5] (Homo sapiens); more than 100 µM in the series with U2OS, human osteosarcoma (Homo sapiens). Besides, the half-inhibitory concentration (IC50) is more than 0.4 µM in series [6] (Homo sapiens, NTERA2, 72 hours) and more than 8 µM in series [7] (Homo sapiens).
On to `CC(=O)[O][Pt]([NH2])([NH2])([Cl])([Cl])[O]C(C)=O` [c,c,t-[Pt(NH3)2Cl2(O2CCH3)2]], for which, in [1] (A2780/CP70 cells), the “resistance of A2780/CP70 cells to the compound” value is “much more resistant”. Moreover, the “activity relative to mitaplatin” value in series [8] was “less active by several fold than mitaplatin”.
cis-[Pt(NH3)2Cl2] [Cisplatin]: the “apoptosis (Annexin-V)” value is “Apoptosis was detected” with U2OS, “Apoptosis was detected” in the series on A549, “showed apoptosis” with normal MRC-5 cells and “Apoptosis was detected” in the series on HeLa. In addition, the IC50 in series [1] was 6 µM; in series [2] (72 hours), 13 µM; in series [3] (72 hours) it was 9.5 µM; in series [4] it was 12 µM; in [5] it was 0.56 µM; in the series with U2OS, human osteosarcoma, 3.9 µM. The IC50 turned out to be 0.043 µM in series [6] (72 hours); 0.05 µM in series [6] (72 hours, listed as cis-DDP); 1.2 µM in [7]. Moreover, the “cell killing in co-culture” value in series [9] is “kills both the normal and cancer cells”.
